According to publication PMC12036875, “Mitochondria-targeting natural product rhein conjugated with dichloroacetate as the dual inhibitor of glycolysis and oxidative phosphorylation to off energize cancer cells and induce ROS storm” (Theranostics, 2025):
Read-outs that look alike come from different tables or passages of the source.

Tests used:
293T cells = test: MTT cytotoxicity assay, normal cells; format: cell-based; details: Homo sapiens, HEK-293T, read-out: IC50 293T
Description: (§1) The cytotoxicity of Rhein-DCA conjugate was performed on various cancer cell lines, including breast cancer (4T1 and MCF-7), cervical cancer (HeLa), and colorectal carcinoma (CT26) via 3-(4,5)-dimethylthiahiazo(-z-y1)-3,5-di-phenytetrazoliumromide (MTT) assay. […] Moreover, the cytotoxicity of these compounds (rhein, DCA, R + D and Rhein-DCA) for normal cells (293T) was lower than that of those tested cancer cells.
Mouse breast cancer 4T1 cells and Mouse colorectal carcinoma CT26 cells were purchased from Haixing Biosciences Co., Ltd (Jiangsu, P. R. China), and cultured in complete RPMI-1640 medium supplemented with 10% FBS and 1% Penicillin / Streptomycin in a cell incubator (37 °C in 95% air and 5% CO2 atmosphere). Human breast cancer MCF-7 cells, Human cervical carcinoma HeLa cells and Human embryonic kidney 293T cells were obtained from the China Center for Type Culture Collection (CCTCC). MCF-7 and HeLa cells were cultured in DMEM medium containing 10% FBS and 1% Penicillin / Streptomycin and then cultured in a cell incubator (37 °C in 95% air and 5% CO2 atmosphere).
The cytotoxicity of rhein, DCA, the mixture of rhein and DCA (R + D) and Rhein-DCA conjugate was evaluated on HeLa, MCF-7, CT26, 4T1 and 293T cell lines by MTT assay. Cells were seeded in 96-well plates at a density of 3 × 10^3 cells per well in the corresponding complete culture medium and cultured for 24 h. Then cells were incubated with 200 μL fresh medium containing the respective desired concentrations of rhein, DCA, R + D (with the concentrations being 100, 66.7, 44.4, 29.6, 19.8, 13.2, 8.8, 5.9, 3.9, 2.6, 1.7 and 1.2 μM, respectively) and Rhein-DCA conjugate (with the concentrations being 29.6, 19.8, 13.2, 8.8, 5.9, 3.9, 2.6, 1.7, 1.2, 0.8, 0.5 and 0.3 μM, respectively). After 72 h of incubation, 20 μL of MTT solution (5 mg/mL) was added to each well and the plates were cultured for another 4 h. The medium was carefully removed, and 110 μL of DMSO was added into per well to dissolve the formazan. The absorption densities at 590 nm were recorded with microplate reader. […]

[1] = tested on: Cyt C protein in 4T1 cells; test: Western blot of Cyt C; format: cell-based, Mouse; details: 6.25 μM, 24 h
Description: The opening of mPTP in mitochondria often leads to the release of pro-apoptotic factor such as cytochrome C (Cyt C), thereby inducing apoptosis. Western blot was applied to measure the level of Cyt C in 4T1 cells after treatment with different drugs. The ratio of the integrated density value of target Cyt C protein to the internal parameter β-actin protein was also analyzed (Figure 4B). […] The released Cyt C in the rhein and R + D groups was 4.4- and 5.0-fold than that of the control group, respectively, clarifying that rhein component could boost the release of Cyt C in 4T1 cells.
4T1 cells were seeded in 6-well plates at a density of 20 × 10^4 cells per well and cultured for 24 h. Then the cells were treated with rhein, DCA, R + D and Rhein-DCA conjugate, each at a concentration of 6.25 μM for 24 h. Cells were washed twice with PBS and lysed by RIPA total protein extraction solution containing multiple protease inhibitors for 30 min while being maintained on ice. The lysate was centrifuged at 9391 G for 10 min at 4 °C to obtain the total protein solution. The concentrations of total protein were determined with BCA Protein Assay Kit. The protein was further denatured with 5 × protein loading buffer at 100 °C for 15 min. Sodium dodecyl sulfate polyacrylamide gel electrophoresis was conducted to separate the protein and transferred it to PVDF membranes. The PVDF membranes were blocked with 5% skim milk for 30 min at room temperature and incubated with indicated primary antibodies: Anti-Cytochrome C Rabbit pAb (1:1000); Anti-β-actin Rabbit pAb (1:1000); or Anti-PDHA1 Rabbit mAb (phosphoS^293) (1:1000) overnight at 4 °C. The membranes were incubated with HRP conjugated Goat Anti-Rabbit IgG (H+L) (1:5000), respectively, for 30 min at room temperature and then analyzed by chemiluminescence (Clinx,6100).

4T1 tumor tissue = test: Lactate detection in tumor tissue (ELISA); format: in vivo, Balb/c mice; details: 20 mg/kg oral, 24 days
Description: The TAMs are the prominent components in the TEM and play a critical role in tumoral immunosuppression. Repolarization of protumor M2 phenotype into antitumor M1 phenotype is promising for malignant tumors. On the one hand, as a key metabolite fueling M2 polarization, lactate is very important in modulating the polarization state of macrophages within the tumor microenvironment. To verify that Rhein-DCA conjugate reprogrammed the metabolism of cells on solid tumors, we analyzed the expression of pPDHA1-Ser^293 protein in tumor tissues with immunohistochemical staining (IHC) (Figure 7A). […] The end product lactate of glycolysis decreased 20%, consistent with DCA's ability to reverse the Warburg effect. […] On the other hand, the ICD behavior of cancer cells also can activate TAMs into M1 polarization. Then, the release of HMGB1 was evaluated to assess the ICD effect in vivo with immunofluorescence staining (IF) (Figure 7C).
Tumor tissues were collected and homogenized in ice-cold PBS (1:10, w/v). The tissue was disrupted using sonication in ice bath (power 400 W, the duration of sonication is 3 s, the interval duration of 3 s, total sonication time of 20 min). The homogenate was centrifuged at 5000 G for 10 min at 4 °C to obtain the supernatant. The lactate content was analyzed with a lactate ELISA kit according to the manufacturer's protocol. The results were normalized to the weight of the tumor and reported as µmol lactate/g tissue.

[2] = tested on: 4T1, MCF-7, HeLa and CT26 cell lines; test: MTT cytotoxicity assay, statement over all tested cancer cell lines; format: cell-based; details: for IC50: 72 h, read-out: IC50 in all tested cell lines
Description: as §1
The cytotoxicity of rhein, DCA, the mixture of rhein and DCA (R + D) and Rhein-DCA conjugate was evaluated on HeLa, MCF-7, CT26, 4T1 and 293T cell lines by MTT assay. Cells were seeded in 96-well plates at a density of 3 × 10^3 cells per well in the corresponding complete culture medium and cultured for 24 h. Then cells were incubated with 200 μL fresh medium containing the respective desired concentrations of rhein, DCA, R + D (with the concentrations being 100, 66.7, 44.4, 29.6, 19.8, 13.2, 8.8, 5.9, 3.9, 2.6, 1.7 and 1.2 μM, respectively) and Rhein-DCA conjugate (with the concentrations being 29.6, 19.8, 13.2, 8.8, 5.9, 3.9, 2.6, 1.7, 1.2, 0.8, 0.5 and 0.3 μM, respectively). After 72 h of incubation, 20 μL of MTT solution (5 mg/mL) was added to each well and the plates were cultured for another 4 h. The medium was carefully removed, and 110 μL of DMSO was added into per well to dissolve the formazan. The absorption densities at 590 nm were recorded with microplate reader. The quoted IC50 values were presented as the mean ± standard deviation.

[3] = 72 h treatment, MTT, normal cells, mean ± S.D., n = 3

SMILES | IC50 (293T cells; 72 h) | released Cyt C, in words [1] | decrease of tumor lactate (4T1 tumor tissue; vs vehicle) | IC50 [2] | IC50 (293T cells; [3]) | released Cyt C relative to control group (Cyt C/β-actin) [1] | tumor lactate level, in words (4T1 tumor tissue) | IC50 ([2]; MTT, summary over the cell lines) | tumor lactate level as percentage of the vehicle group (4T1 tumor tissue) | increase of cytotoxicity in comparison with individual rhein, DCA and their combination ([2]; all four cancer cell lines)
O=C(O)C(Cl)Cl [DCA, Dichloroacetate] | > 100 µM | could almost be disregarded | 20% | > 100 µM | – | – | – | – | – | –
O=C(O)c1cc(O)c2c(c1)C(=O)c1cccc(O)c1C2=O [Rhein, 4,5-dihydroxyanthraquinone-2-carboxylic acid] | – | – | – | – | 126 ± 13.6 µM | 4.4 fold | reduced tumor lactate levels | 40 to 80 µM | – | –
O=C(OCCOC(=O)C(Cl)Cl)c1cc(O)c2c(c1)C(=O)c1cccc(O)c1C2=O [Rhein-DCA] | – | more Cyt C than rhein and R + D groups | – | – | 11.7 µM | – | – | – | 44% | at least 10 fold
